Experimental data: article PMC10026069, “Retinal–Carotenoid Interactions in a Sodium-Ion-Pumping Rhodopsin: Implications on Oligomerization and Thermal Stability” (The Journal of Physical Chemistry. B, 2023)
Several values for one entry are separate records, joined by “and”; a condition that tells them apart may be missing. Equal entries are not always repeated.

What was measured:
[1] = molecular target: T1, DDR2 (Nonlabens (Donghaeana) dokdonensis rhodopsin, sodium-ion-pumping rhodopsin) (Nonlabens dokdonensis, UniProt A0ABX5Q1D8); test: absorption spectroscopy of the pigment; format: binding; conditions: covalent, protonated Schiff base to lysine; pH 8, room temperature
T1 construct: gene LX97_00829; pentamer at neutral pH
T1 sequence (A0ABX5Q1D8 1-279): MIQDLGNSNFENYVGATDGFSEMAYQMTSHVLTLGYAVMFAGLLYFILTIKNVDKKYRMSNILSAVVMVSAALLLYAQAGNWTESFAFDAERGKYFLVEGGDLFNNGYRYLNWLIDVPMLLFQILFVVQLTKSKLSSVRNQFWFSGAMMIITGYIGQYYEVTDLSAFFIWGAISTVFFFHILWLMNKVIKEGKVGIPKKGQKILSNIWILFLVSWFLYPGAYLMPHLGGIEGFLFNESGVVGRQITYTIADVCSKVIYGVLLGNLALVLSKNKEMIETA

[2] = molecular target: Nonlabens (Donghaeana) dokdonensis rhodopsin (DDR2) (Nonlabens (Donghaeana) dokdonensis); test: SEC; AKTA FPLC; DDM-solubilised DDR2 at pH 7 or 9; apparent masses from soluble protein markers; 0.06% DDM, 300 mM NaCl; also run with salinixanthin bound (oligomeric form not affected)

| Molecule | absorption spectroscopy of the pigment [1] | stoichiometry N [2] |
| --- | --- | --- |
| CC1=C(/C=C/C(C)=C/C=C/C(C)=C/C=O)C(C)(C)CCC1 [all-trans retinal] | absorption of the all-trans retinal chromophore covalently bound to the protein |  |
| Nonlabens (Donghaeana) dokdonensis rhodopsin (DDR2) (natural protein) |  | 5 and 10 |
